Where “and” joins values, the source holds several entries; their conditions need not be identical. Identical values can stand only once.
How the values were obtained:
[1] = molecular target: T1, RSV L+P complex (Human respiratory syncytial virus A, UniProt P28887); assay type: biochemical
[2] = molecular target: RSV MTase-CTD protein (Human respiratory syncytial virus A, UniProt P28887); assay: Methyltransferase filter-binding assay; assay type: biochemical; settings: three technical replicates
Sequence of RSV MTase-CTD protein (P28887 1755-2165): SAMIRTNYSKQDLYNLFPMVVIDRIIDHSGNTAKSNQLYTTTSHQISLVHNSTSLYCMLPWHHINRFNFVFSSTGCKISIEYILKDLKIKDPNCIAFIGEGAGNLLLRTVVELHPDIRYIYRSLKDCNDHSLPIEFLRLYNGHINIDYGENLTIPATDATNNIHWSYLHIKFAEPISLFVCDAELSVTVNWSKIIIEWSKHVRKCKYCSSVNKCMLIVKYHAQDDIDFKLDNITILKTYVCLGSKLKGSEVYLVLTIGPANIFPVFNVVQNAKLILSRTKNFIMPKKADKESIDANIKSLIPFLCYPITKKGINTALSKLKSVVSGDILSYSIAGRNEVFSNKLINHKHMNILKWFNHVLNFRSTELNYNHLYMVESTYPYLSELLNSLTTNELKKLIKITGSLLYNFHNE

[3] = molecular target: T1, RSV L+P complex; assay: Surface plasmon resonance assay; assay type: binding, Human RSV (strain A2); settings: SPR, top concentration 1 mM

T1 sequence (P03421 whole entry): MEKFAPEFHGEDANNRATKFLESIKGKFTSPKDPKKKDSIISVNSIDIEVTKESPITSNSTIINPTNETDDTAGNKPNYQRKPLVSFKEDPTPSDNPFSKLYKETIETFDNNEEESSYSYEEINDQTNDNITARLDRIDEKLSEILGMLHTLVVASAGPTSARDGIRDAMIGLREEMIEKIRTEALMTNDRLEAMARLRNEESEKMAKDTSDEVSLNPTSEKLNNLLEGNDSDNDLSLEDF
T1 sequence (P28887 whole entry): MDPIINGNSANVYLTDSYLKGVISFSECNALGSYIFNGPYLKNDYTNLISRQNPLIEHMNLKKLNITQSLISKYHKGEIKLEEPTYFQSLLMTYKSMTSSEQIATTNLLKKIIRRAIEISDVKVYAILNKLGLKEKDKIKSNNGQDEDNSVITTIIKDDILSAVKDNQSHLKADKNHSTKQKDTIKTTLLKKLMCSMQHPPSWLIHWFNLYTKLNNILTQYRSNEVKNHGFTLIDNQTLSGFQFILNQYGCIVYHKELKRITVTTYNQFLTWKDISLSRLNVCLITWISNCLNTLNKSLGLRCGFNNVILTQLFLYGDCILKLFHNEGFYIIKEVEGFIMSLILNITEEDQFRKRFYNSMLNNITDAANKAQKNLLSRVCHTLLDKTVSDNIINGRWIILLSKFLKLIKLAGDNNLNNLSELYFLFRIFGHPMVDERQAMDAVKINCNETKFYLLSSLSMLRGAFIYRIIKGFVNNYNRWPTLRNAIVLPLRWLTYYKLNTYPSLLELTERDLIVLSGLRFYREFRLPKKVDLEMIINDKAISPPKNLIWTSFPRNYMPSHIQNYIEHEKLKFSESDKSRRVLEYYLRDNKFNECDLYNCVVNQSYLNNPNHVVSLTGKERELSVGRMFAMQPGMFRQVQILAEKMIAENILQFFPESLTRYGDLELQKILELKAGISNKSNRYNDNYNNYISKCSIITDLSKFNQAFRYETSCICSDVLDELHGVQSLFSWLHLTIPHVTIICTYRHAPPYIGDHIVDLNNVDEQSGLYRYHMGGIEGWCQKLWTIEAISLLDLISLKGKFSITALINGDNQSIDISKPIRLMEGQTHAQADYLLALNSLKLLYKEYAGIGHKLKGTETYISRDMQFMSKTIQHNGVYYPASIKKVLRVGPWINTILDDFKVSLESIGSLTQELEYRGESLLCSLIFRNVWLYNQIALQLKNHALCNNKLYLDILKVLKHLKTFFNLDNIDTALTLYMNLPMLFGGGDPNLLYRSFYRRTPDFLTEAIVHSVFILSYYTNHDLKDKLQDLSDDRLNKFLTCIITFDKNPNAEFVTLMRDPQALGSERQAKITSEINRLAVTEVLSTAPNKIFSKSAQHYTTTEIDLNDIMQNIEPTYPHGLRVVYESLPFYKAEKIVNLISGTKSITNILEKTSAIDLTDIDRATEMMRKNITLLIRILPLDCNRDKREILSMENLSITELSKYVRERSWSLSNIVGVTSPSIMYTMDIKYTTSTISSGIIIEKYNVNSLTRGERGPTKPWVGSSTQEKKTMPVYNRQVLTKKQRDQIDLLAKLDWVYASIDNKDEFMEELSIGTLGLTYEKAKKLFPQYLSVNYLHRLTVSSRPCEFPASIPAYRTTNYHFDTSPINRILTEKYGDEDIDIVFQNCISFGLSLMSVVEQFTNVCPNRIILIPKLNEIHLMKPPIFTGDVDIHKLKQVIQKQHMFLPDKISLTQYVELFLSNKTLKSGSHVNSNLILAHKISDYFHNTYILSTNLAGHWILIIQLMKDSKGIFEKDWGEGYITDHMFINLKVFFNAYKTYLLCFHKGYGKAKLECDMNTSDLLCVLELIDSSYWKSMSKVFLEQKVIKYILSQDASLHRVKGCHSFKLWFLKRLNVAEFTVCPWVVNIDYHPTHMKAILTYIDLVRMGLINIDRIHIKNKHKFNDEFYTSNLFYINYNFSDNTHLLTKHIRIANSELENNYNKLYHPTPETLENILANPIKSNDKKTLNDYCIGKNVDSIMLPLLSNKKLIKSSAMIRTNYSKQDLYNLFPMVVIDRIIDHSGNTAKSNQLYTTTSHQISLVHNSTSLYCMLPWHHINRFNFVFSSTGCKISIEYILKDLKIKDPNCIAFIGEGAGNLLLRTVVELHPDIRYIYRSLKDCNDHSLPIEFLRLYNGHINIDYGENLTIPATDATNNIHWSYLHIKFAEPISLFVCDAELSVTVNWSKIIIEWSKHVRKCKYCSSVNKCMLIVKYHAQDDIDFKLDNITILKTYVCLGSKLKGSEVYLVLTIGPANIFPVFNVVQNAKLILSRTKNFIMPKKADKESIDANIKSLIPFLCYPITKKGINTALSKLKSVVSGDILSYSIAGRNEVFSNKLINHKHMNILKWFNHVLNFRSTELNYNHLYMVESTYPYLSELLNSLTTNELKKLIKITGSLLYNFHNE

SMILES	MTase activity, RNA+compound+RSV L+P, CPM [1]	MTase activity, RNA+compound+RSV MTase-CTD, CPM ([2]; 50 uM)	MTase activity, RNA+compound+RSV MTase-CTD, CPM ([2]; 200 uM)	binding to purified RSV L+P (in words) [3]
O=C(NC1CC1)c1cc2c(s1)-c1ccccc1N(C(=O)c1ccc(NC(=O)c3cccnc3N3CCC4(CC3)COC4)cc1)CC2 [AZ-27, reference compound]	10786 CPM and 11483 CPM and 10556 CPM and 15234 CPM and 15171 CPM and 17548 CPM	28343 CPM and 26589 CPM and 27119 CPM	32944 CPM and 32511 CPM and 35155 CPM	
Nc1nc2c(ncn2[C@@H]2O[C@H](COP(=O)(O)OP(=O)(O)O)[C@@H](O)[C@H]2O)c(=O)[nH]1 [GDP, guanosine diphosphate]				did not bind
